Test results taken from paper PMC4457643 (Biochimica et biophysica acta, 2015).
Where two headings read alike, the source gives them in different places.

How the values were obtained:
CcP(triAla) [1] = target: T1, CcP(triAla) (Saccharomyces cerevisiae, UniProt P00431, H119A/R115A/W118A); test: biochemical; type: binding, yeast; conditions: for share of absorbance change, high-affinity (KD1) phase / share of absorbance change, low-affinity (KD2) phase: pH 7.0
CcP(triLeu) [2] = target: T2, CcP(triLeu) (Saccharomyces cerevisiae, UniProt P00431, H119L/R115L/W118L); test: biochemical; type: binding, yeast
T2 sequence (P00431 68-361 R115L/W118L/H119L): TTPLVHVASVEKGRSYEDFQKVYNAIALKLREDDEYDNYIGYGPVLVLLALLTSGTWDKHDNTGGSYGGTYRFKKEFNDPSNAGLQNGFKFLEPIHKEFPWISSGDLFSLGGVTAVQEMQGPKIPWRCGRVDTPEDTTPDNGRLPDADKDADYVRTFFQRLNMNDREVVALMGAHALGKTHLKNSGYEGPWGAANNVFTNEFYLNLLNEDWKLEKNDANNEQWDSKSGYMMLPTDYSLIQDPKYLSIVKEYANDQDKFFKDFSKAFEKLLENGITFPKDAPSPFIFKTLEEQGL

CcP(triVal) [3] = target: T3, CcP(triVal) (Saccharomyces cerevisiae, UniProt P00431, H119V/R115V/W118V); test: biochemical; type: binding, yeast; conditions: for share of absorbance change, high-affinity (KD1) phase / share of absorbance change, low-affinity (KD2) phase: pH 7.0
T3 sequence (P00431 68-361 R115V/W118V/H119V): as the sequence (P00431 68-361 R115L/W118L/H119L) above, with L48V, L51V, L52V counted along it

[4] = free ligand; cited from earlier work
CcP(triLeu) [5] = target: T2, CcP(triLeu); test: Stopped-flow kinetics of imidazole binding to CcP; design: species or system yeast; conditions: for pKa1 for ka^app / pKa2 for ka^app: fit to Eq. 4 with pKa1 ≤ pKa2
CcP(triVal) [6] = target: T3, CcP(triVal); test: Stopped-flow kinetics of imidazole binding to CcP; design: species or system yeast; conditions: for pKa1 for ka^app / kd^app, k^acid (low pH limit): fit to Eq. 4; for ka^app, k^acid (low pH value): fit to Eq. 4, 0.10 M ionic strength, 25 °C; for ka^app / kd^app / kmax: pH 7
CcP(triAla) [7] = target: T1, CcP(triAla); test: Stopped-flow kinetics of imidazole binding to CcP; design: species or system yeast
[8] = read-out: KD2 (low-affinity phase), pH 7.0, 0.10 M ionic strength potassium phosphate buffer
[9] = fast phase, fit to Eq. 4, 0.10 M ionic strength, 25 °C
[10] = fast phase, listed as imidazole
[11] = slow phase, single-ionization fit
[12] = read-out: KD1 (high-affinity phase), pH 7.0, 0.10 M ionic strength potassium phosphate buffer
[13] = read-out: KD1acid (low pH limit of KD1), fit of pH dependence pH 4-8 to Eq. 2
[14] = read-out: KD1base (high pH limit of KD1), fit of pH dependence pH 4-8 to Eq. 2
[15] = read-out: KD2base (high pH limit of KD2), fit of pH dependence pH 4-8 to Eq. 2
[16] = slow phase, listed as imidazole

T1 sequence (P00431 68-361 R115A/W118A/H119A): as the sequence (P00431 68-361 R115L/W118L/H119L) above, with L48A, L51A, L52A counted along it

O=[N+]([O-])c1c[nH]cn1 [4-Nitroimidazole, 4-nitroimidazole]
Kd (CcP(triAla) [1]): 16 mM | Kd (CcP(triLeu) [2]): 35 mM | Kd (CcP(triVal) [3]): 0.56 mM | pKa for the imidazole/imidazolate ionization [4]: 9.5

Cn1ccnc1 [1-Methylimidazole, 1-methylimidazole]
Kd (CcP(triAla) [1]): 0.35 mM | share of absorbance change, high-affinity (KD1) phase (CcP(triAla) [1]): 30% | share of absorbance change, low-affinity (KD2) phase (CcP(triAla) [1]): 70% | share of absorbance change, low-affinity (KD2) phase (CcP(triAla) [1]; listed as MIM): about 70% | Kd (CcP(triLeu) [2]): 39 mM | Kd (CcP(triVal) [3]): 0.16 mM | share of absorbance change, high-affinity (KD1) phase (CcP(triVal) [3]): 77% | share of absorbance change, low-affinity (KD2) phase (CcP(triVal) [3]): 23% | Kd (CcP(triVal) [3]; [8]): 6.8 mM

c1c[nH]cn1 [Imidazole]
ka^app, k^acid (low pH value) (CcP(triLeu) [5]; [9]): 2.2 ± 0.4 M^−1 s^−1 | ka^app, k^base (high pH value) (CcP(triLeu) [5]; [9]): 0 ± 25 M^−1 s^−1 | ka^app, k^base (high pH value) (CcP(triLeu) [5]; fast phase, fit to Eq. 4, 0.10 M ionic strength, 25 °C, listed as imidazole): less than 25 M^−1 s^−1 | pKa1 for ka^app (CcP(triLeu) [5]; fast phase): 7.3 ± 0.9 | pKa2 for ka^app (CcP(triLeu) [5]; fast phase): 7.3 ± 1.5 | pKa1 for ka^app (CcP(triLeu) [5]; [10]): 7.3 | pKa2 for ka^app (CcP(triLeu) [5]; [10]): 7.3 | ka^app (CcP(triLeu) [5]; fast phase, pH 7): 36 ± 4 M⁻¹ s⁻¹ | kd^app (CcP(triLeu) [5]; fast phase, pH 7): 0.24 ± 0.03 s⁻¹ | kd^app, pH-independent average value (CcP(triLeu) [5]; fast phase, pH range 4 to 8): 0.38 ± 0.12 s^−1 | kmax, average value (CcP(triLeu) [5]; slow phase, averaged over pH range 4 to 8): 0.048 ± 0.018 s⁻¹ | kmax (CcP(triLeu) [5]; slow phase, pH 7): 0.070 ± 0.002 s⁻¹ | kmax (= kslow), k^acid (low pH value) (CcP(triLeu) [5]; [11]): 0.032 ± 0.003 s^−1 | kmax (= kslow), k^neut (high pH value) (CcP(triLeu) [5]; [11]): 0.077 ± 0.011 s^−1 | pKa1 for kmax (CcP(triLeu) [5]; [11]): 6.7 ± 0.4 | share of absorbance change at 414 nm, low-affinity phase (CcP(triAla) [1]; between pH 4 and 8): 75 ± 8% | share of absorbance change, low-affinity phase (CcP(triAla) [1]; pH 5.5): 76% | share of absorbance change, high-affinity (KD1) phase (CcP(triAla) [1]): 17% | share of absorbance change, low-affinity (KD2) phase (CcP(triAla) [1]): 83% | Kd (CcP(triAla) [1]; read-out: KD1 (high-affinity phase), pH 5.5, 25 °C): 0.1 ± 0.03 mM | Kd (CcP(triAla) [1]; [12]): 0.22 mM | Kd (CcP(triAla) [1]; [13]): > 25 mM | Kd (CcP(triAla) [1]; [14]): 0.13 ± 0.06 mM | Kd (CcP(triAla) [1]; [8]): 12 mM | Kd (CcP(triAla) [1]; read-out: KD2 (low-affinity phase), pH 7.0, 25 °C): 11 ± 1 mM | Kd (CcP(triAla) [1]; [15]): 6.4 ± 0.7 mM | pKa1 for ka^app (CcP(triVal) [6]; fast phase): 6.2 ± 0.3 | ka^app, k^acid (low pH value) (CcP(triVal) [6]; fast phase): 5.4 ± 16.2 M^−1 s^−1 | ka^app, k^acid (low pH value) (CcP(triVal) [6]; [10]): 5.4 M^−1 s^−1 | ka^app (CcP(triVal) [6]; fast phase): 170 ± 7 M⁻¹ s⁻¹ | kd^app (CcP(triVal) [6]; fast phase): 0.32 ± 0.01 s⁻¹ | kmax (CcP(triVal) [6]; fast phase): 1.9 ± 0.1 s⁻¹ | kd^app, pH-independent average value (CcP(triVal) [6]; fast phase, pH range 4 to 8): 0.25 ± 0.08 s^−1 | kmax, pH-independent value (CcP(triVal) [6]; fast phase, pH range 4 to 8): 1.5 ± 0.3 s^−1 | kmax, pH-independent value (CcP(triVal) [6]; fast phase, pH range 4 to 8, listed as imidazole): 1.5 s^−1 | kd^app, k^acid (low pH limit) (CcP(triVal) [6]; slow phase): 0.026 ± 0.009 s^−1 | pKa1 for ka^app (CcP(triVal) [6]; slow phase): 7.6 ± 0.3 | ka^app, k^acid (low pH value) (CcP(triVal) [6]; slow phase): 1.3 ± 0.7 M^−1 s^−1 | ka^app, k^acid (low pH value) (CcP(triVal) [6]; [16]): 1.3 M^−1 s^−1 | kd^app, k^acid (low pH limit) (CcP(triVal) [6]; [16]): 0.026 s^−1 | ka^app (CcP(triVal) [6]; slow phase): 30 ± 10 M⁻¹ s⁻¹ | kd^app (CcP(triVal) [6]; slow phase): 0.050 ± 0,006 s^−1 | kmax (CcP(triVal) [6]; slow phase): 0.16 ± 0.08 s⁻¹ | kmax, pH-independent value (CcP(triVal) [6]; slow phase, pH range 4 to 8): 0.17 ± 0.04 s^−1 | kmax, pH-independent value (CcP(triVal) [6]; slow phase, pH range 4 to 8, listed as imidazole): 0.17 s^−1 | share of absorbance change, high-affinity (KD1) phase (CcP(triLeu) [2]; pH 7.0): 78% | share of absorbance change, low-affinity (KD2) phase (CcP(triLeu) [2]; pH 7.0): 22% | Kd (CcP(triLeu) [2]; [12]): 0.6 mM | Kd (CcP(triLeu) [2]; [14]): 0.22 ± 0.15 mM | Kd (CcP(triLeu) [2]; [8]): 17 mM | pKa1 for ka^app (CcP(triAla) [7]; fast phase, fit to Eq. 4): 7.0 ± 0.2 | ka^app, k^acid (low pH value) (CcP(triAla) [7]; [9]): 2.2 ± 0.4 M^−1 s^−1 | ka^app (CcP(triAla) [7]; fast phase, pH 7): 80 ± 7 M⁻¹ s⁻¹ | kd^app (CcP(triAla) [7]; fast phase, pH 7): 0.43 ± 0.04 s⁻¹ | kd^app, pH-independent average value (CcP(triAla) [7]; fast phase, pH range 4.0 to 8.0): 0.47 ± 0.10 s^−1 | kmax (CcP(triAla) [7]; slow phase, pH 7): 0.050 ± 0.009 s⁻¹ | kmax (= kslow), pH-independent average value (CcP(triAla) [7]; slow phase, pH range 4.0 to 8.0): 0.032 ± 0.011 s^−1 | kmax (= kslow), pH-independent average value (CcP(triAla) [7]; slow phase, pH range 4.0 to 8.0, listed as imidazole): (3.2 ± 1.1) × 10^−2 s^−1 | high-affinity imidazole binding stronger than for wild-type CcP (CcP(triVal) [3]; pH 7): 4.7 orders of magnitude | share of absorbance change, high-affinity (KD1) phase (CcP(triVal) [3]): 68% | share of absorbance change, low-affinity (KD2) phase (CcP(triVal) [3]): 32% | share of absorbance change, high-affinity phase, average (CcP(triVal) [3]; pH range 4 to 8): 67 ± 10% | Kd (CcP(triVal) [3]; [12]): 0.083 mM | Kd (CcP(triVal) [3]; [13]): 9.6 ± 5.5 mM | Kd (CcP(triVal) [3]; [14]): 0.096 ± 0.007 mM | Kd (CcP(triVal) [3]; read-out: KD1base (high pH limit of KD1), fit of pH dependence to Eq. 2): 0.096 ± 0.007 mM | Kd (CcP(triVal) [3]; [8]): 12 mM | Kd (CcP(triVal) [3]; [15]): 6.7 ± 2.3 mM
